{"source": "patent US20210395306A1", "about": "“POLYPEPTIDES FOR THE TREATMENT OF STRESS, IMMUNOREACTION AND STROKE SYNDROMES” (Neopep Pharma GmbH & Co. KG, priority 2018, published 2021)", "system": "Pancreas carcinoma cells", "assay": "Cancer cell invasion assay on humanized rats with implanted pancreas carcinoma cells", "assay_type": "in vivo", "conditions": "pancreas carcinoma implant", "description": "The cancer cell invasion assay was performed on humanized rats (Eyol, E. et al., Oncology Reports, 28: 2177-2187, 2012). Pancreas carcinoma cells were implanted. The successful implant was observed by luminescent imaging as well as by an increase in CXCR4 expression.\nAfter a successful implant of carcinoma cells, the rats were treated with a peptide according to SEQ ID No. 1. The results after 1 week of therapy (1 w of therapy), after 2 weeks of therapy (2 w of therapy) and 2 weeks after end of therapy are depicted in the below table.", "data": [{"sequence": "LVRYTQKAPQVS (human) [SEQ ID No. 1]", "values": [{"measurement": "Tumor growth / remission", "setting": "10 mg peptide, 1 w of therapy", "value": "No tumor growth"}, {"measurement": "Tumor growth / remission", "setting": "20 mg peptide, 1 w of therapy", "value": "No tumor growth"}, {"measurement": "Tumor growth / remission", "setting": "20 mg peptide, 2 w after end of therapy", "value": "Complete"}, {"measurement": "Tumor growth / remission", "setting": "20 mg peptide, 2 w of therapy", "value": "Complete"}, {"measurement": "Tumor growth / remission", "setting": "70 mg peptide, 1 w of therapy", "value": "No tumor growth"}, {"measurement": "Tumor growth / remission", "setting": "70 mg peptide, 2 w after end of therapy", "value": "Complete"}, {"measurement": "Tumor growth / remission", "setting": "70 mg peptide, 2 w of therapy", "value": "Remission"}]}]}
